Three molecules from patent US9023821B2, “Use of MicroRNA for treating diseases associated with a dysfunction of the cilia in multiciliated epithelial cells” (Centre National de la Recherche Scientifique, priority 2009, dated 2015) can be followed below.

{Chol} = cholesterol

Data set [1] concerns HAEC cells. Nature of the data set: Ciliogenesis of HAEC cells under blocking of the Notch signalling pathway. The class given is cell-based, human. The conditions noted are these: 10 μM.
The next data set relates to miR-449. Nature of the data set: Expression of miRNAs in HAEC cells treated with antagomir. The class given is cell-based, human.
Data set [2] has as its system HAEC cells. Nature of the data set: Ciliogenesis of HAEC cells treated with antagomir during regeneration (tubulin-β4 positive cells). The class given is cell-based, human. The conditions noted are these: number of ciliated HAEC cells at stage ALI-D21, n=6, P<0.001. The method, then: (a,b) the HEAC cells are treated several times with anti-miR-449 antagomirs or a control antagomir (20 nM) during their regeneration (generally 21 days). The percentage of ciliated cells was defined as the ratio of the number of cells positive to +tubulin-β4 relative to the number of nuclei (20 fields/filter and 3 filters/donor). […] The histogram indicates the percentage of ciliated cells per field for each experimental condition (n=6, ***, P<0.001, Student test).
Six independent cultures of HAEC cells were transfected with an oligonucleotide directed against the miR-449s and conjugated with a cholesterol molecule; ciliogenesis was evaluated during the regeneration time.
These tests use an antisense oligonucleotide of miR-449a (antagomir) bound at 3′ by a 2′-O-methyl bond to a molecule of cholesterol and with the sequence: 5′-ascscsagcuaacaauacacugcscsa-Chol-3′ (SEQ. ID. No. 207) (the phosphorothioate bonds are indicated by the subscript J (obtained according to Eurogentec (Seraing, Belgium).
The antagomir (100 μM) was preincubated in fetal calf serum (FCS) for 30 min RT. Then the antagomir-FCS mixture in a differentiation medium (20 μM of antagomir) is added on the apical face of the primary HAEC cells. After 2 h at 37° C., the mixture is withdrawn to restore the air-liquid interface. […]

Data set [3] relates to human airway epithelial cells (HAECs). Nature of the data set: Agilent miRNA chips, miRNA expression at four stages of differentiation of HAECs. The method in brief:
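Patient RNA samples, the same ones analysed by high-throughput sequencing, were first labelled, then hybridized onto arrays carrying 866 human and 89 human viral miRNAs (miRBase v.12.0), following the supplied labelling and hybridization protocol.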

Data set [4] relates to basal cells and pyramidal cells of the airway epithelium. Description: miRNA expression in sorted basal cells versus pyramidal cells (ciliated + secretory), HTS and Agilent chips. Further details: species or system human. The method in brief:
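Nasal polyp or concha epithelial cells from 3 donors were stained with CD151-PE and anti-tissue factor-FITC for 20 min at 4° C, with DAPI excluding damaged cells. CD151+/TF+ basal and CD151−/TF− ciliated/secretory cells were FACS-sorted; total RNA miRNA profiles came from Agilent chips or high-throughput sequencing.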

The test system of data set [5] is human airway epithelial cells (HAECs). Description: High-throughput sequencing (HTS) of miRNAs at four stages of differentiation of HAECs. An outline of the steps: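 Reads per 5p and 3p strand scaled to 10^6 sequences, then to percentage abundance; linear model plus empirical Bayes normalization. Retained miRNAs exceeded 1% of total in at least one condition, with |Log2 Ratio| below 0.5 and adjusted P-value below 0.05.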

Consider `C[C@H](NC(=O)Cc1cc(F)cc(F)c1)C(=O)N[C@H](C(=O)OC(C)(C)C)c1ccccc1` [DCT], for which the “ciliogenesis during regeneration of the HAEC cells” value with HAEC cells [1] is given as “potentiates ciliogenesis significantly”.
For “anti-miR-449 antagomir: antisense oligonucleotide of miR-449a bound at 3′ to cholesterol, 5′-ascscsagcuaacaauacacugcscsa-Chol-3′ (SEQ. ID. No. 207) (antisense ACCAGCUAACAAUACACUGCCA; linkages s3 o16 s2 (s phosphorothioate, o phosphodiester), 3' {Chol}, sugars by position and methylation of C not given here; further chemistry not fully specified; listed as Homo sapiens)”, in the data set with miR-449 (n=6), the “expression of miR449a” value is on record as “suppresses”, the “expression of miR-21” value was “no effect” and the “expression of miR-449b” value is reported as “suppresses”. The “expression of miR-449” value with miR-449 (stage ALI-D21) is “reduction of the same order”. Further, in the data set with HAEC cells [2], the “mean value of inhibition of ciliogenesis” value was determined as 2.3±0.3.
With “hsa-miR-200a: human miRNA, SEQ ID No. 16 (UAACACUGUCUGGUAACGAUGU; expressed or natural sequence; listed as Homo sapiens)”, the “Modulation (ratio of the level of intensity of expression in log2 in two stages of differentiation) measured with the Agilent chips, D7 − D0” value in data set [3] (D7 − D0, Table VI) stood at 1.94 log2. For the same molecule, the “Modulation (ratio of the level of intensity of expression in log2 at two stages of differentiation), FC − D7” value in data set [3] (FC − D7, Agilent miRNA chips, Table V) was 0.20 log2. The “Modulation (ratio of the level of intensity of expression in log2 in two stages of differentiation) measured with the Agilent chips, FC − D7” value in data set [3] (FC − D7, Table VI) is recorded as 0.20 log2. For the same molecule, the “Modulation (ratio of the level of intensity of expression in log2 in two stages of differentiation) measured with the Agilent chips, WD − D0” value in data set [3] (WD − D0, Table VI) was found to be 2.20 log2. For the same molecule, the “Modulation (ratio of the level of intensity of expression in log2 at two stages of differentiation), WD − FC” value in data set [3] (WD − FC, Agilent miRNA chips, Table V) is given as 0.06 log2. Moreover, in data set [3] (WD − FC, Table VI), the “Modulation (ratio of the level of intensity of expression in log2 in two stages of differentiation) measured with the Agilent chips, WD − FC” value was found to be 0.06 log2. Besides, the “Level of intensity of expression in log2 measured with the Agilent chips, D0” value in data set [3] (stage D0, Table VI) was 8.64 log2. Moreover, the “Level of intensity of expression in log2 measured with the Agilent chips, D7” value in data set [3] (stage D7, Table VI) was found to be 10.58 log2. In addition, in data set [3] (stage FC, Table VI), the “Level of intensity of expression in log2 measured with the Agilent chips, FC” value came to 10.79 log2. In addition, in data set [3] (stage WD, Table VI), the “Level of intensity of expression in log2 measured with the Agilent chips, WD” value is 10.84 log2. Further, in data set [4] (HTS and Agilent chips), the “Modulation of expression of the miRNAs in pyramidal cells (323(−)) relative to basal cells 323(+)” value is −0.95. The “Intensity of the level of expression in log2 in basal cells (323(+))” value in data set [4] (basal cells) was determined as 8.80 log2. Besides, the “Intensity of the level of expression in log2 in pyramidal cells (323(−))” value in data set [4] (pyramidal cells (ciliated + secretory)) is on record as 7.85 log2. Further, in data set [5] (D7 − D0, Table VI), the “Modulation (ratio of the level of intensity of expression in log2 in two stages of differentiation) measured by high-throughput sequencing, D7 − D0” value is 1.00 log2. Besides, the “Modulation (ratio of the level of intensity of expression in log2 in two stages of differentiation) measured by high-throughput sequencing, FC − D7” value in data set [5] (FC − D7, Table VI) was 0.67 log2. Also, the “Modulation (ratio of the level of intensity of expression in log2 in two stages of differentiation) measured by high-throughput sequencing, WD − D0” value in data set [5] (WD − D0, Table VI) turned out to be 2.20 log2. Moreover, the “Modulation (ratio of the level of intensity of expression in log2 in two stages of differentiation) measured by high-throughput sequencing, WD − FC” value in data set [5] (WD − FC, Table VI) is recorded as 0.54 log2. Further, in data set [5] (healthy human airway epithelial tissue, stage WD), the “Level of intensity of expression in log2 At the differentiated stage (WD) measured in HTS” value is listed as 10.96 log2. Moreover, in data set [5] (stage D0, Table VI), the “Level of intensity of expression in log2 measured by high-throughput sequencing, D0” value was found to be 9.02 log2. Also, the “Level of intensity of expression in log2 measured by high-throughput sequencing, D7” value in data set [5] (stage D7, Table VI) was 10.01 log2. Moreover, the “Level of intensity of expression in log2 measured by high-throughput sequencing, FC” value in data set [5] (stage FC, Table VI) is 10.68 log2. Moreover, the “Level of intensity of expression in log2 measured by high-throughput sequencing, WD” value in data set [5] (stage WD, Table VI) is on record as 11.22 log2.
